Measured values published in ChEMBL document CHEMBL4190171, “Chemical probes and inhibitors of bromodomains outside the BET family” (Medchemcomm, 2016).
Each block holds one compound with its values, some of them ahead of it.

Key:
[1] = biological target: T1, ATPase family AAA domain-containing protein 2B (Homo sapiens, UniProt Q9ULI0); assay: Binding affinity to partial length human ATAD2B (Q955 to R1082) expressed in bacterial expression system by Bromoscan method
T1 sequence (Q9ULI0 whole entry): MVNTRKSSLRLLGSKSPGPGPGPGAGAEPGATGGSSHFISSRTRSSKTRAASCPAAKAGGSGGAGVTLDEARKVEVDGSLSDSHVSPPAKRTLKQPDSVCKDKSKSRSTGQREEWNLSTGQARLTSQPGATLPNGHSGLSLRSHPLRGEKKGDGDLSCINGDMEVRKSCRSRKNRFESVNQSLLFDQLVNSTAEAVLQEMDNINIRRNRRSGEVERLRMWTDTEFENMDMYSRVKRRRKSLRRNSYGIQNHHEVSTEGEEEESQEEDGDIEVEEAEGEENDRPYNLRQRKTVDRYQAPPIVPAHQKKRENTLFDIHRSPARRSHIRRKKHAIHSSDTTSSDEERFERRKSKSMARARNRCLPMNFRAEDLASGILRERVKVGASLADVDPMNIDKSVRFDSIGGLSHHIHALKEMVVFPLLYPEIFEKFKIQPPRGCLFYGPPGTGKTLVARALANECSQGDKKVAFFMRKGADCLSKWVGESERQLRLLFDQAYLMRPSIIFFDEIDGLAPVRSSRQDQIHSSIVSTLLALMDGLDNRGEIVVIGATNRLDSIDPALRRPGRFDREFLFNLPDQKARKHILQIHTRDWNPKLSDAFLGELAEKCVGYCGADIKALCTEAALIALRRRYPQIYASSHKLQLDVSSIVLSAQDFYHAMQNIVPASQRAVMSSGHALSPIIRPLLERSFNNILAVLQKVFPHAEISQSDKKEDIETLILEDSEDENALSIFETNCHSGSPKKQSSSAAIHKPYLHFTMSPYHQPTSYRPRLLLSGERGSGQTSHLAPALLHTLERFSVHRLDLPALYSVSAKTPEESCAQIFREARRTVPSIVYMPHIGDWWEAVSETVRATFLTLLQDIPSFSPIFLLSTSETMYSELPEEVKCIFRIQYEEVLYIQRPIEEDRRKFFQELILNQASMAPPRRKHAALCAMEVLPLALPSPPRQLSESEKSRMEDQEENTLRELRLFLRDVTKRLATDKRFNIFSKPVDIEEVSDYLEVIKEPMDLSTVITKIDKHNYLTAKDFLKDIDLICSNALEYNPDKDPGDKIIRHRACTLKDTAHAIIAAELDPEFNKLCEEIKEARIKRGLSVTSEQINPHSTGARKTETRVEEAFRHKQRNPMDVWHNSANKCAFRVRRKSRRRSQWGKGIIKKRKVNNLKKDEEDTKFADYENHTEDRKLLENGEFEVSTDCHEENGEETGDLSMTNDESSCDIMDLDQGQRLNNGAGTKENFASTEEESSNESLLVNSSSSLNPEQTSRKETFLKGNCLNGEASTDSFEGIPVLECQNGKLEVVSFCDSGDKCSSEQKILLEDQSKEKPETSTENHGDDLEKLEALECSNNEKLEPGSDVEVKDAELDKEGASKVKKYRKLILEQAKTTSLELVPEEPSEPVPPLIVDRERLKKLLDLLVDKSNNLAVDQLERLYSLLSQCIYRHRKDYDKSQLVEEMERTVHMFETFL

[2] = biological target: Cellular tumor antigen p53 (Homo sapiens, UniProt P04637); assay: Inhibition of p53-induced (unknown origin) expressed in human RKO cells assessed as reduction in p53-induced p21 activation measured after 24 hrs by luciferase reporter gene assay; type: cell-based
[3] = biological target: T2, Histone acetyltransferase p300 (Homo sapiens, UniProt Q09472); assay: Binding affinity to EP300 (unknown origin) by isothermal titration calorimetry
[4] = biological target: T3, Bromodomain-containing protein 4 (Homo sapiens, UniProt O60885); assay: Displacement of Halo-tagged histone H3.3 from Nluc-BRD4 (unknown origin) expressed in HEK293 cells using furimazine as substrate pretreated for 18 hrs followed by substrate addition measured within 5 mins by NanoBRET assay; type: cell-based
[5] = biological target: T3, Bromodomain-containing protein 4; assay: Binding affinity to human BRD4 bromodomain1 by isothermal titration calorimetry
CREB-binding protein [6] = biological target: T4, CREB-binding protein (Homo sapiens, UniProt Q92793); assay: Binding affinity to C-terminally biotinylated N-terminal His10-tagged human CBP bromodomain (R1081 to G1198 residues) expressed in Escherichia coli BL21(DE3) by isothermal titration calorimetry
[7] = biological target: T5, Histone acetyltransferase KAT2B (Homo sapiens, UniProt Q92831)
Description: Displacement of biotinylated small molecule ligand from His/FLAG-tagged PCAF bromodomain (719 to 832 residues) (unknown origin) after 15 mins by AlphaLisa method

[8] = biological target: T3, Bromodomain-containing protein 4; assay: Binding affinity to recombinant BRD4 bromodomain1 (unknown origin) by isothermal titration calorimetry
CREB-binding protein [9] = biological target: T4, CREB-binding protein; assay: Inhibition of CBP bromodomain (unknown origin) using H3K56Ac peptide as substrate by Alphascreen assay
[10] = system: Human immunodeficiency virus 1; assay: Antiviral activity against HIV1 3B infected in human C8166 cells assessed as reduction in virus-induced cytopathic effect by measuring syncytium formation after 3 days by inverted microscopic analysis; type: functional, organism-based; settings: Human immunodeficiency virus 1, 3B, C8166, 72 h
[11] = biological target: T5, Histone acetyltransferase KAT2B; remark: listed apart in the source
THP-1 = assay: Inhibition of LPS-stimulated IL-6 secretion in human THP1 cells by ELISA; type: functional, cell-based
[12] = biological target: T2, Histone acetyltransferase p300; assay: Binding affinity to recombinant human His-tagged EP300 expressed in bacterial expression system by isothermal titration calorimetry
CREB-binding protein [13] = biological target: T4, CREB-binding protein; assay: Binding affinity to recombinant human His-tagged CBP bromodomain expressed in bacterial expression system by isothermal titration calorimetry
CREB-binding protein [14] = biological target: T4, CREB-binding protein; assay: Binding affinity to CBP bromodomain (unknown origin) by tryptophan fluorescence assay

T4 sequence (Q92793 whole entry, the tested form may be a part): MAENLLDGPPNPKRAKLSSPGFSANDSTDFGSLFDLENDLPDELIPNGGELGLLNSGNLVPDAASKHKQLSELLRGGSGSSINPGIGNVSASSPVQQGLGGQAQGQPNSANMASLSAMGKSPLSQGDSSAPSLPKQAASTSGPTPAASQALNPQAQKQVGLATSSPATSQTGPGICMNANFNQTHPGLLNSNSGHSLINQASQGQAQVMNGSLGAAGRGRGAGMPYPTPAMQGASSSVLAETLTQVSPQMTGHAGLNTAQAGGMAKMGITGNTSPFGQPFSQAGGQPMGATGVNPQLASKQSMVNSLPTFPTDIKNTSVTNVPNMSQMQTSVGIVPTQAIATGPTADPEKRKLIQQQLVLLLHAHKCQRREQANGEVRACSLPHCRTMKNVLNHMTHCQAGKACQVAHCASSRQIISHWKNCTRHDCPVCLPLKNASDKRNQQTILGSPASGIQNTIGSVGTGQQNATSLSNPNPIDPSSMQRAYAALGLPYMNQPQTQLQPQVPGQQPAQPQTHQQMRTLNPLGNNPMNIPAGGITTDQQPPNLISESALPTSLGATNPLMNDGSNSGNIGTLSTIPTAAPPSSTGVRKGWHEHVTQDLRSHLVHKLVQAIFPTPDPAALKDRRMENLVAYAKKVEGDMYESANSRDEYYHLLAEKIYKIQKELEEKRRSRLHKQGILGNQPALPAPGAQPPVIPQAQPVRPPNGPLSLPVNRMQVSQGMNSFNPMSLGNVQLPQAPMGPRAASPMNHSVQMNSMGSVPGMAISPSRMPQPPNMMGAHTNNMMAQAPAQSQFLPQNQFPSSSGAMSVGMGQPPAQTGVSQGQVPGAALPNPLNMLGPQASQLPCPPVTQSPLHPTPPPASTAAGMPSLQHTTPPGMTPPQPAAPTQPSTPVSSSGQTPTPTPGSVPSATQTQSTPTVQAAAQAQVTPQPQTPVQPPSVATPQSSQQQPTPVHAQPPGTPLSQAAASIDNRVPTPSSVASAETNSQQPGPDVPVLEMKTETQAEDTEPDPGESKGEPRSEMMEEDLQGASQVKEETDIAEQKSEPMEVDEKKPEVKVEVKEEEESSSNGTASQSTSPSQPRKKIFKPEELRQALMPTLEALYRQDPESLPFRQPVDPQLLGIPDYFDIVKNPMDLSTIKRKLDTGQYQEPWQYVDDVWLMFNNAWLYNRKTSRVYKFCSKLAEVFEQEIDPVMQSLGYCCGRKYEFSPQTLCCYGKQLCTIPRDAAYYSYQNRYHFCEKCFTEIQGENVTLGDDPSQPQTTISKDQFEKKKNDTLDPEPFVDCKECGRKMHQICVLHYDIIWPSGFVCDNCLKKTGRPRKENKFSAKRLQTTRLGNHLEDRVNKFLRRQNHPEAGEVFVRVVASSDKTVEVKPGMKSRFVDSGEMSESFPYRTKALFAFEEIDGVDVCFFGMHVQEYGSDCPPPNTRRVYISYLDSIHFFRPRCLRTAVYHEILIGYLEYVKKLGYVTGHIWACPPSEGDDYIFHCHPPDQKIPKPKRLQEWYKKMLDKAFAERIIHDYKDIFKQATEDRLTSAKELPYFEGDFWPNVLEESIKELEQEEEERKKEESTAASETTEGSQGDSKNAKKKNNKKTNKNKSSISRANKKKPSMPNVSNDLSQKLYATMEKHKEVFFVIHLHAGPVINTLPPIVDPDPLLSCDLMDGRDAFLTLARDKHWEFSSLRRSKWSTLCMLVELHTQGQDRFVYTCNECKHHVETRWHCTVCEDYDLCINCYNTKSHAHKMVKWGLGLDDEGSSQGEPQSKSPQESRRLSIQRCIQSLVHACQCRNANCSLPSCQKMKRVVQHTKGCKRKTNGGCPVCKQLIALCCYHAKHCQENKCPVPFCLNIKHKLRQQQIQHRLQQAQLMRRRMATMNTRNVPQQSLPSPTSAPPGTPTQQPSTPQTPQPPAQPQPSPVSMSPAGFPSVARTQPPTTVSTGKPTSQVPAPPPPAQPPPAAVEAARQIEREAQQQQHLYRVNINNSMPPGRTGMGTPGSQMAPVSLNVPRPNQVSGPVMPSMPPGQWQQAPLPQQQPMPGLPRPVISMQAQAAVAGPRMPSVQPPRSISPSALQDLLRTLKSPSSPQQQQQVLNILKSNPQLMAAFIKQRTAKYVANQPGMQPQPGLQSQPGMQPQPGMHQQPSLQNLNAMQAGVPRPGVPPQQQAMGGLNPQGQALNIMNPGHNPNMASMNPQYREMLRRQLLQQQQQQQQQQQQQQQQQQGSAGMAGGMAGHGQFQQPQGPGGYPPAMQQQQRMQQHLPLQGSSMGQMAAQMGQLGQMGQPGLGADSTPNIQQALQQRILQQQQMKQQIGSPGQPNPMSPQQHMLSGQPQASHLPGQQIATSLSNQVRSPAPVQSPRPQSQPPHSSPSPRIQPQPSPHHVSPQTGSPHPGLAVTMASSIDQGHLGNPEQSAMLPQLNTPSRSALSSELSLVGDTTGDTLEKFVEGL
T2 sequence (Q09472 whole entry): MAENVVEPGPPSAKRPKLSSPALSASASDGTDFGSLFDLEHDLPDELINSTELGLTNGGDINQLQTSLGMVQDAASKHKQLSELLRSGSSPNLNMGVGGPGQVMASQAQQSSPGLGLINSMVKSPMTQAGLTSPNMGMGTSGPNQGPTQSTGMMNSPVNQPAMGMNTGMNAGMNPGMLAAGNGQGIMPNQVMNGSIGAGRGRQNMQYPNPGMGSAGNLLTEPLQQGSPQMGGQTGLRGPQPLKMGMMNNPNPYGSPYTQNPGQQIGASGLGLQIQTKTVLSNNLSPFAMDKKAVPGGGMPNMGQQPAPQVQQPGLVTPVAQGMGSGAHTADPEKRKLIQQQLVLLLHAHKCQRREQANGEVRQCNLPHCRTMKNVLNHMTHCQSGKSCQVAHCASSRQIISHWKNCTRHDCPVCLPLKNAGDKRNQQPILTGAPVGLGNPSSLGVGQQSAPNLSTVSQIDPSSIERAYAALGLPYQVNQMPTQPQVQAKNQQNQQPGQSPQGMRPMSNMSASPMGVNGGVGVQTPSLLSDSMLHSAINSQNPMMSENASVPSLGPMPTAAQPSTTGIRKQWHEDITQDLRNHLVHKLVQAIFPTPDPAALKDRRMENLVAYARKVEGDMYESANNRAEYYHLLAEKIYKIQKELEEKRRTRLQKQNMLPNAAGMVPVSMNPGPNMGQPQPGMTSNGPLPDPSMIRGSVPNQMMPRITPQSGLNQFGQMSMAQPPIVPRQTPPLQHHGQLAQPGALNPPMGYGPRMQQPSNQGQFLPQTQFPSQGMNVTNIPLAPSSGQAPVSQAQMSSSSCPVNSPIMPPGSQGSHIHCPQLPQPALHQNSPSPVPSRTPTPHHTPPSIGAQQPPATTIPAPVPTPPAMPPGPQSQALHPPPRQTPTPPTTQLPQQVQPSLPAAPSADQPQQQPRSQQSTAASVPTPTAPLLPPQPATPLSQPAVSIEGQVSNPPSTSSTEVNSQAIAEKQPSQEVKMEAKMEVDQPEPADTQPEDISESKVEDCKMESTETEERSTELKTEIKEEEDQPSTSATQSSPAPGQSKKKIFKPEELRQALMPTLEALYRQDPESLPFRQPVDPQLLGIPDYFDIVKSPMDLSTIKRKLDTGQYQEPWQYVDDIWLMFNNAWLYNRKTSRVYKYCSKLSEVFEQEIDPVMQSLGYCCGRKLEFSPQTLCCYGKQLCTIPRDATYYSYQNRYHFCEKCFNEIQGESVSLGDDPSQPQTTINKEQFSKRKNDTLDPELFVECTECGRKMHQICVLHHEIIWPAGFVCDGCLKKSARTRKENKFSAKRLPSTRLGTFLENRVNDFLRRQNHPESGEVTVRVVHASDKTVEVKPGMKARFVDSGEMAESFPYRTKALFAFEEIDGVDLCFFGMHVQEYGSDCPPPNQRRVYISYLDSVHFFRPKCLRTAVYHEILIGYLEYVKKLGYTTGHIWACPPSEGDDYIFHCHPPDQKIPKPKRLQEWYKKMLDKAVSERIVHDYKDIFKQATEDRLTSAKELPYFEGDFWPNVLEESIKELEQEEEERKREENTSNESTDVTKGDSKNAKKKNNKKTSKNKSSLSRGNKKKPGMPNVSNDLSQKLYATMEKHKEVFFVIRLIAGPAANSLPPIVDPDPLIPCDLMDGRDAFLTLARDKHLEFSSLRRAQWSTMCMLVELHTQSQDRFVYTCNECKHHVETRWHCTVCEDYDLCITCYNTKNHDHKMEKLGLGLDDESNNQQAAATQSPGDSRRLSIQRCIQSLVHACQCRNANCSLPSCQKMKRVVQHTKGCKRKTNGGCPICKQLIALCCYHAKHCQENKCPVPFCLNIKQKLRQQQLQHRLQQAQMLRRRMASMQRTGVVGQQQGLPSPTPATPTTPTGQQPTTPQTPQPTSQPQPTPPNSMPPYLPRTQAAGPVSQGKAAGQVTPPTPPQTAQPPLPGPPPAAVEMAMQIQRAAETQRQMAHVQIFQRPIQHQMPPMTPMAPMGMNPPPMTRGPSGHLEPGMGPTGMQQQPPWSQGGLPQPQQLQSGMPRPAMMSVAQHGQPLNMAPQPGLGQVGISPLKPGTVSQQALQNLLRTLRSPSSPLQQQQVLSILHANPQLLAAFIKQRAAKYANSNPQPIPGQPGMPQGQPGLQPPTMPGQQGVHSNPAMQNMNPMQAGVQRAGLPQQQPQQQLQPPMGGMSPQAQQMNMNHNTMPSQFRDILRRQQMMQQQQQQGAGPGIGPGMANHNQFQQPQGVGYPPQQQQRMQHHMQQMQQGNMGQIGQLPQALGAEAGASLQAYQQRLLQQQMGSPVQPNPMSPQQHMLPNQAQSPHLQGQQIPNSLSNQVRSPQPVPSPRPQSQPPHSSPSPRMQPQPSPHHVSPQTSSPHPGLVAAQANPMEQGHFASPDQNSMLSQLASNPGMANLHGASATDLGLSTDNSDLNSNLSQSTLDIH

- Kd [1]: 0.001 µM
Compound: CO[C@H]1CNC[C@@H](OCC2CCC(F)(F)CC2)[C@@H]1Nc1ncc(-c2cncc(C)c2)c2cc(C)c(=O)[nH]c12

- IC50 [2]: 1.54 µM
Compound: COc1ccc(CCc2nc3cc(-c4c(C)noc4C)ccc3n2C[C@H](C)N2CCOCC2)cc1Cl

- Kd [3]: 0.167 to 0.343 µM
- IC50 [4]: 0.6 µM
- Kd [5]: 5.59 µM
- Kd (CREB-binding protein [6]): 0.151 to 0.208 µM
Compound: CCC(=O)N1CCOc2c(cc(-c3ccc(OC)c(OC)c3)cc2OC[C@H]2CCCN(C)C2)C1

- IC50 [7]: 0.07 µM
Compound: C[C@H](Nc1nn(C)c(=O)n(C)c1=O)[C@H](c1ccc(S(=O)(=O)c2ccccc2)cc1)N(C)C

- Kd [8]: 20 µM
Compound: CCCOc1ccc(CCc2nc3cc(-c4c(C)noc4C)ccc3n2CCN2CCOCC2)cc1

- IC50 (CREB-binding protein [9]): 1900 µM
Compound: CC1Nc2ccccc2NC1=O (stereo not given)

- EC50 [10]: 11.5 µM
- IC50 [11]: 0.93 µM
Compound: NCCCNCc1ccc(NCCCN)[n+]([O-])c1

- IC50 (THP-1): < 10 µM
Compound: Cc1cc(=O)n(C)c2cc(N3C(=O)CC[C@H](NS(=O)(=O)CC(C)C)[C@H]3c3ccc(Cl)cc3)ccc12

- Kd [12]: 0.35 µM
- Kd (CREB-binding protein [13]): 0.32 µM
Compound: Cc1noc(C)c1-c1ccc2c(c1)nc(CCc1ccccc1)n2CCN1CCOCC1

- Kd (CREB-binding protein [14]): 8 µM
Compound: CC(=O)NCCCC[C@@H]1NC(=O)[C@H](Cc2c[nH]c3ccccc23)NC(=O)[C@@H](NC(C)=O)CSSCC(C(=O)N[C@@H](Cc2ccccc2)C(=O)N[C@@H](CCCCN)C(N)=O)NC(=O)[C@H](CC(C)C)NC(=O)[C@H](CCCCN)NC1=O (single isomer, unassigned)
